Data from ChEMBL document CHEMBL1131654 (Bioorg Med Chem Lett, 1998).

Experiments:
[1] = biological target: T1, 5-hydroxytryptamine receptor 1B (Homo sapiens, UniProt P28222); settings: Oryctolagus cuniculus; Saphenous vein
Description: 5-hydroxytryptamine 1B receptor agonist potency determined in rabbit saphenous vein contraction model

[2] = biological target: T1, 5-hydroxytryptamine receptor 1B; experiment: 5-HT1B agonist potency was evaluated as effective dose that induced hypothermia in the guinea-pig upon intraperitoneal administration; type: functional, organism-based; settings: Cavia porcellus; target entry is the homologue from another species
[3] = biological target: 5-hydroxytryptamine receptor 1D (Homo sapiens, UniProt P28221); experiment: In vitro binding affinity was determined towards cloned human 5-hydroxytryptamine 1D receptor using [3H]5-CT radioligand
[4] = biological target: T1, 5-hydroxytryptamine receptor 1B; experiment: Effective concentration determined by measuring inhibition of forskolin-stimulated c-AMP formation at 5-hydroxytryptamine 1B receptor stably transfected in CHO cell lines; type: functional, cell-based
[5] = biological target: T1, 5-hydroxytryptamine receptor 1B; experiment: In vitro binding affinity was determined towards cloned human 5-hydroxytryptamine 1B receptor using [3H]5-CT radioligand
[6] = biological target: T2, 5-hydroxytryptamine receptor 1A (Homo sapiens, UniProt P08908); experiment: In vitro binding affinity was determined towards cloned human 5-hydroxytryptamine 1A receptor using [3H]8-OH-DPAT radioligand
T2 sequence (P08908 whole entry): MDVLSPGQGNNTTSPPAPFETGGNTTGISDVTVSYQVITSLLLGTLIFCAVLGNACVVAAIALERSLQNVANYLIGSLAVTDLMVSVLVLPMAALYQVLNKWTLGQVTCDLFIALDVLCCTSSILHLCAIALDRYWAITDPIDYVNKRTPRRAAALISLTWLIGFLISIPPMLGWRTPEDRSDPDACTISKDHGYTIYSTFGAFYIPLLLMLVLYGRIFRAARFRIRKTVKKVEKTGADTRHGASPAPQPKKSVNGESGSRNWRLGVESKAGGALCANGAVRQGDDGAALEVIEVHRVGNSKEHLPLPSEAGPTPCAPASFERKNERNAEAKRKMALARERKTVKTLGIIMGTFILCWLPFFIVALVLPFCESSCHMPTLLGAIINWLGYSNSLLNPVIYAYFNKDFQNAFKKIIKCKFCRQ

[7] = biological target: T1, 5-hydroxytryptamine receptor 1B; experiment: 5-hydroxytryptamine 1B receptor agonist potency was evaluated as effective dose that induced hypothermia in the guinea-pig upon intraperitoneal administration; type: functional, organism-based; settings: Cavia porcellus; target entry is the homologue from another species

T1 sequence (P28222 whole entry): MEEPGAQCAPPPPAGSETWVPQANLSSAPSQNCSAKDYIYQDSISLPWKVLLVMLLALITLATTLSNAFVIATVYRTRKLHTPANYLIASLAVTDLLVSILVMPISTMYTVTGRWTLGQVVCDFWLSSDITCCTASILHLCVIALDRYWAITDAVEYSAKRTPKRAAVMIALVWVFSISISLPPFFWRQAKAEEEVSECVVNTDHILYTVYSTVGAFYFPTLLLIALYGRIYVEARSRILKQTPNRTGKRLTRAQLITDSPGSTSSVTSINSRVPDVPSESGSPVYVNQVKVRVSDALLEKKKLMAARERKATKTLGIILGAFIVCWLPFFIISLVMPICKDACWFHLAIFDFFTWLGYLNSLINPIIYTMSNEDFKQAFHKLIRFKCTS
5-hydroxytryptamine receptor 1D, sequence (P28221 whole entry): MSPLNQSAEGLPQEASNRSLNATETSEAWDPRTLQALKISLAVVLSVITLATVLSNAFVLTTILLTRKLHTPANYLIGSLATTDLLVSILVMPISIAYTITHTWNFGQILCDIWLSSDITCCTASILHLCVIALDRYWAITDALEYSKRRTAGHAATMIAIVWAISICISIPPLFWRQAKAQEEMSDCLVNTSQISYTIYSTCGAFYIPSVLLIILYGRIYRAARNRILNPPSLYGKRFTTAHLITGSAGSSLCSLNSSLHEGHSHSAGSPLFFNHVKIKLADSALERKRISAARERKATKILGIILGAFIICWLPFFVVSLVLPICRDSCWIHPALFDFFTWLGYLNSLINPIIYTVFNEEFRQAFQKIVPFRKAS

Row | Ki [6] | ED50 [7] | SMILES | pD2 [1] | ED50 [2] | Ki [3] | EC50 [4] | Ki [5]
1 | – | – | CN(C)CCc1c[nH]c2ccc(C[C@H]3COC(=O)N3)cc12 [ZOLMITRIPTAN] | 6.2 | 3.2 mg/kg | 0.76 nM | 15.7 nM | 4.2 nM
2 | 17.7 nM | 1.3 mg/kg | CN(C)CCc1c[nH]c2ccc(CS(=O)(=O)N(C)Cc3ccc(CN(C)S(=O)(=O)Cc4ccc5[nH]cc(CCN(C)C)c5c4)cc3)cc12 | 6.6 | – | 0.89 nM | 0.58 nM | 0.64 nM
